Earlier results in patent US20090203786A1, “Methods and Composition for Improving Cognitive Function” (priority 2005, published 2009).

Settings: Connor W E et al. (1990)

## CC/C=C\C/C=C\C/C=C\C/C=C\C/C=C\C/C=C\CCC(=O)O [DHA, docosahexaenoic acid]
Rhesus monkey brain
  half-life of DHA in brain: 21 days
Rhesus monkeys, stabilized after 12 weeks of supplementation
  Cerebral DHA concentration relative to pre-supplementation value: 7 times
